The target in this experiment is T1, Human recombinant sGC enzyme (Homo sapiens, UniProt Q02108+Q02153).
T1 construct: purchased Axxora, LLC (San Diego, Calif.)
T1 sequence (Q02153 1-619): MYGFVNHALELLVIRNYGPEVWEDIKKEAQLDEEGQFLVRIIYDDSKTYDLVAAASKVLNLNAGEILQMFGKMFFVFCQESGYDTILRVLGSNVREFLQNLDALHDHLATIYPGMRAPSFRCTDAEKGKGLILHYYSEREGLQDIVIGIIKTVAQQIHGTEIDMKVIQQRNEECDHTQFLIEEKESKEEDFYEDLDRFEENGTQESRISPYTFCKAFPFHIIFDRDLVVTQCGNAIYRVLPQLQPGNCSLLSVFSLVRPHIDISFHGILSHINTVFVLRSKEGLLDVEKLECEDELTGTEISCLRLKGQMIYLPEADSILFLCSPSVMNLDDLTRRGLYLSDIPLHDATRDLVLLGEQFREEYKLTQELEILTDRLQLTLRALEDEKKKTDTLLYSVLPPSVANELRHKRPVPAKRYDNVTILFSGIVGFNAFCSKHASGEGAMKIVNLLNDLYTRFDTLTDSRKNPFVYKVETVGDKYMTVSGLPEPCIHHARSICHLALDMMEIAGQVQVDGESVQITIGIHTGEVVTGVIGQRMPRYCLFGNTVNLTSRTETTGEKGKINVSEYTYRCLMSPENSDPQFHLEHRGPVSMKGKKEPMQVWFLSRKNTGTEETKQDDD
T1 sequence (Q02108 1-690): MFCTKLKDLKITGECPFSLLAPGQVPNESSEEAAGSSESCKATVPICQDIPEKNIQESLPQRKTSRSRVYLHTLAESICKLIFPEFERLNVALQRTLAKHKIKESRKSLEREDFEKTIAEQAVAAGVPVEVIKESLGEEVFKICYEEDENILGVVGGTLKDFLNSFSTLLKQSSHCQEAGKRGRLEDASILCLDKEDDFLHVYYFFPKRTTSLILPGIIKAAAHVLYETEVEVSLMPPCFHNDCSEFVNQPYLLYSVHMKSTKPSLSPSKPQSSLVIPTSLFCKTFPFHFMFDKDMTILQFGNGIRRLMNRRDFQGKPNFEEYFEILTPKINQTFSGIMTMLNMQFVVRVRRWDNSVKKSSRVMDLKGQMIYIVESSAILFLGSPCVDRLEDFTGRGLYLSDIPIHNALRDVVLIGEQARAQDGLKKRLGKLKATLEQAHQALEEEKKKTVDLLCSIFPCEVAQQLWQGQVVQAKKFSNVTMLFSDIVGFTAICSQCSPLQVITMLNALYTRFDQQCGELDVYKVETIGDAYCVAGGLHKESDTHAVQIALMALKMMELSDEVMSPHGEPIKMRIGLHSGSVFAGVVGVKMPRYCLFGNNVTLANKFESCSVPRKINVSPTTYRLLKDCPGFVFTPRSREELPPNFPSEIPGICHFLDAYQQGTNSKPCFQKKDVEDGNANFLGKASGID
The experiment is described as follows: Measurement of soluble guanylyl cyclase activation (enzyme-based), PCASA cell-free enzymatic assay, cGMP by HTRF. To be noted: purified sGC 0.1 ng, substrate GTP, 1 hr at 37° C. The format is biochemical. The procedure:
Measurement of Soluble Guanylyl Cyclase ([…]) Activation (Enzyme-Based)
Activities of test compounds against purified sGC were evaluated in PCASA assay which is a cell-free enzymatic assay.
Human recombinant sGC enzyme with greater than 95% purity was obtained from Axxora, LLC (San Diego, Calif.). Compounds were incubated with 0.1 ng of sGC enzyme in presence of its substrate GTP for 1 hr at 37° C. At the end of the incubation period, the reaction was stopped and the amount of cGMP generated was measured by an HTRF-based assay (CisBio, 62GN2PEC), which detects the displacement of a fluorophore-labeled cGMP from its specific antibody.
Inflection point, maximum % of activation, and EC50 were derived based on the plot of compound concentration vs % activation.

SMILES strings stand for the structures.

`O=C(O)c1cnn(-c2cccc(-c3cc(Cl)ccc3OCc3ccc([C@H]4CC[C@H](C(F)(F)F)CC4)cc3)n2)c1C(F)(F)F` [Example 9]: the EC50 worked out at 1.7 nM.
